pEC50: −log10 of the molar value.
Target: human APJ receptor (Homo sapiens (Human), UniProt P35414)
Assay: [35S]GTPγS binding assay on membranes from CHO cells stably expressing human APJ receptor
Format: biochemical
Conditions: membranes of CHO cells stably expressing human APJ receptor, read-out: Activity hAPJ SPA EC50 IP
In short: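 Agonist EC50 values come from non-linear regression of mean data from several independent runs. Membranes of CHO cells stably expressing human APJ were incubated 90 min at room temperature with [35S]GTPγS in buffer with optimized GDP, MgCl2 and NaCl, then read on a microplate imager.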

Sequence of human APJ receptor (P35414 whole entry): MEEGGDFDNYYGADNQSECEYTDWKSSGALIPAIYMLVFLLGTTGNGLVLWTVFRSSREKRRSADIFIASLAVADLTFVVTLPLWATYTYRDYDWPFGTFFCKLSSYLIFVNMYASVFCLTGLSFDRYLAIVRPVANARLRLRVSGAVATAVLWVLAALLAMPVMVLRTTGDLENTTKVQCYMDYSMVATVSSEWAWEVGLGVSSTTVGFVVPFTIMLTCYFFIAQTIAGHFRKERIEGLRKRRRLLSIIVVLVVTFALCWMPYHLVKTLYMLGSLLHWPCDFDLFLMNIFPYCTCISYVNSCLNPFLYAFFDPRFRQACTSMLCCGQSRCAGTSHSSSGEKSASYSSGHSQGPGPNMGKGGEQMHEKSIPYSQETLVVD

| Structure (SMILES) | pEC50 |
| --- | --- |
| COc1cccc(-c2nnc(NS(=O)(=O)[C@@H](C)[C@H](C)c3ncc(Cl)cn3)n2[C@@H](C)c2ncnn2C)n1 (single isomer, unassigned) [Example 251.0, (2S,3R)-3-(5-chloro-2-pyrimidinyl)-N-(5-(6-methoxy-2-pyridinyl)-4-((1R)-1-(1-methyl-1H-1,2,4-triazol-5-yl)ethyl)-4H-1,2,4-triazol-3-yl)-2-butanesulfonamide or (2S,3R)-3-(5-chloro-2-pyrimidinyl)-N-(5-(6-methoxy-2-pyridinyl)-4-((1S)-1-(1-methyl-1H-1,2,4-triazol-5-yl)ethyl)-4H-1,2,4-triazol-3-yl)-2-butanesulfonamide] | 8.77 |
| COc1cccc(-c2nnc(NS(=O)(=O)[C@@H](C)[C@@H](OC(C)C)c3ncc(C)cn3)n2[C@@H](C)c2ncnn2C)n1 (single isomer, unassigned) [Example 253.0, (1S,2S)-N-(5-(6-methoxy-2-pyridinyl)-4-((1R)-1-(1-methyl-1H-1,2,4-triazol-5-yl)ethyl)-4H-1,2,4-triazol-3-yl)-1-(5-methyl-2-pyrimidinyl)-1-(2-propanyloxy)-2-propanesulfonamide or (1S,2S)-N-(5-(6-methoxy-2-pyridinyl)-4-((1S)-1-(1-methyl-1H-1,2,4-triazol-5-yl)ethyl)-4H-1,2,4-triazol-3-yl)-1-(5-methyl-2-pyrimidinyl)-1-(2-propanyloxy)-2-propanesulfonamide] | 7.49 |
| COc1cccc(-c2nnc(NS(=O)(=O)[C@@H](C)[C@H](OC)c3ncc(Cl)cn3)n2[C@@H](C)c2ncc(C)o2)n1 (single isomer, unassigned) [Example 255.0, (1R,2S)-1-(5-chloro-2-pyrimidinyl)-1-methoxy-N-(5-(6-methoxy-2-pyridinyl)-4-((1S)-1-(5-methyl-1,3-oxazol-2-yl)ethyl)-4H-1,2,4-triazol-3-yl)-2-propanesulfonamide or (1R,2S)-1-(5-chloro-2-pyrimidinyl)-1-methoxy-N-(5-(6-methoxy-2-pyridinyl)-4-((1R)-1-(5-methyl-1,3-oxazol-2-yl)ethyl)-4H-1,2,4-triazol-3-yl)-2-propanesulfonamide] | 8.12 |
| COc1cccc(-c2nnc(NS(=O)(=O)[C@@H](C)[C@H](OC)c3ncc(Cl)cn3)n2[C@@H](C)c2ncc(C)o2)n1 (single isomer, unassigned) [Example 256.0, (1R,2S)-1-(5-chloro-2-pyrimidinyl)-1-methoxy-N-(5-(6-methoxy-2-pyridinyl)-4-((1S)-1-(5-methyl-1,3-oxazol-2-yl)ethyl)-4H-1,2,4-triazol-3-yl)-2-propanesulfonamide or (1R,2S)-1-(5-chloro-2-pyrimidinyl)-1-methoxy-N-(5-(6-methoxy-2-pyridinyl)-4-((1R)-1-(5-methyl-1,3-oxazol-2-yl)ethyl)-4H-1,2,4-triazol-3-yl)-2-propanesulfonamide] | 9.32 |
| COc1cccc(-c2nnc(NS(=O)(=O)[C@@H](C)[C@H](C)c3ncc(Cl)cn3)n2[C@@H](C)c2ncc(C)o2)n1 (single isomer, unassigned) [Example 257.0, (2S,3R)-3-(5-chloro-2-pyrimidinyl)-N-(5-(6-methoxy-2-pyridinyl)-4-((1S)-1-(5-methyl-1,3-oxazol-2-yl)ethyl)-4H-1,2,4-triazol-3-yl)-2-butanesulfonamide or (2S,3R)-3-(5-chloro-2-pyrimidinyl)-N-(5-(6-methoxy-2-pyridinyl)-4-((1R)-1-(5-methyl-1,3-oxazol-2-yl)ethyl)-4H-1,2,4-triazol-3-yl)-2-butanesulfonamide] | 7.80 |
| COc1cccc(-c2nnc(NS(=O)(=O)[C@@H](C)[C@H](C)c3ncc(Cl)cn3)n2[C@@H](C)c2ncc(C)o2)n1 (single isomer, unassigned) [Example 258.0, (2S,3R)-3-(5-chloro-2-pyrimidinyl)-N-(5-(6-methoxy-2-pyridinyl)-4-((1S)-1-(5-methyl-1,3-oxazol-2-yl)ethyl)-4H-1,2,4-triazol-3-yl)-2-butanesulfonamide or (2S,3R)-3-(5-chloro-2-pyrimidinyl)-N-(5-(6-methoxy-2-pyridinyl)-4-((1R)-1-(5-methyl-1,3-oxazol-2-yl)ethyl)-4H-1,2,4-triazol-3-yl)-2-butanesulfonamide] | 9.06 |
| COc1cccc(-c2nnc(NS(=O)(=O)[C@@H](C)[C@@H](OC(C)C)c3ncc(C)cn3)n2[C@@H](C)c2noc(C)n2)n1 (single isomer, unassigned) [Example 259.0, (1S,2S)-N-(5-(6-methoxy-2-pyridinyl)-4-((1R)-1-(5-methyl-1,2,4-oxadiazol-3-yl)ethyl)-4H-1,2,4-triazol-3-yl)-1-(5-methyl-2-pyrimidinyl)-1-(2-propanyloxy)-2-propanesulfonamide or (1S,2S)-N-(5-(6-methoxy-2-pyridinyl)-4-((1S)-1-(5-methyl-1,2,4-oxadiazol-3-yl)ethyl)-4H-1,2,4-triazol-3-yl)-1-(5-methyl-2-pyrimidinyl)-1-(2-propanyloxy)-2-propanesulfonamide] | 8.06 |
| COc1cccc(-c2nnc(NS(=O)(=O)[C@@H](C)[C@H](OC)c3ncc(Cl)cn3)n2[C@@H](C)c2ccon2)n1 (single isomer, unassigned) [Example 264.0, (1R,2S)-1-(5-chloro-2-pyrimidinyl)-1-methoxy-N-(5-(6-methoxy-2-pyridinyl)-4-((1R)-1-(1,2-oxazol-3-yl)ethyl)-4H-1,2,4-triazol-3-yl)-2-propanesulfonamide or (1R,2S)-1-(5-chloro-2-pyrimidinyl)-1-methoxy-N-(5-(6-methoxy-2-pyridinyl)-4-((1S)-1-(1,2-oxazol-3-yl)ethyl)-4H-1,2,4-triazol-3-yl)-2-propanesulfonamide] | 8.54 |
| COc1cccc(-c2nnc(NS(=O)(=O)[C@@H](C)[C@H](OC)c3ncc(Cl)cn3)n2[C@@H](C)c2ccon2)n1 (single isomer, unassigned) [Example 265.0, (1R,2S)-1-(5-chloro-2-pyrimidinyl)-1-methoxy-N-(5-(6-methoxy-2-pyridinyl)-4-((1R)-1-(1,2-oxazol-3-yl)ethyl)-4H-1,2,4-triazol-3-yl)-2-propanesulfonamide or (1R,2S)-1-(5-chloro-2-pyrimidinyl)-1-methoxy-N-(5-(6-methoxy-2-pyridinyl)-4-((1S)-1-(1,2-oxazol-3-yl)ethyl)-4H-1,2,4-triazol-3-yl)-2-propanesulfonamide] | 9.04 |
| COc1cccc(-c2nnc(NS(=O)(=O)[C@@H](C)[C@@H](OC(C)C)c3ncc(C)cn3)n2[C@@H](C)c2ccon2)n1 (single isomer, unassigned) [Example 269.0, (1S,2S)-1-isopropoxy-N-(4-((R)-1-(isoxazol-3-yl)ethyl)-5-(6-methoxypyridin-2-yl)-4H-1,2,4-triazol-3-yl)-1-(5-methylpyrimidin-2-yl)propane-2-sulfonamide or (1S,2S)-1-isopropoxy-N-(4-((S)-1-(isoxazol-3-yl)ethyl)-5-(6-methoxypyridin-2-yl)-4H-1,2,4-triazol-3-yl)-1-(5-methylpyrimidin-2-yl)propane-2-sulfonamide] | 7.77 |
| COc1cccc(-c2nnc(NS(=O)(=O)[C@@H](C)[C@@H](OC(C)C)c3ncc(C)cn3)n2[C@@H](C)c2ccon2)n1 (single isomer, unassigned) [Example 270.0, (1S,2S)-1-isopropoxy-N-(4-((R)-1-(isoxazol-3-yl)ethyl)-5-(6-methoxypyridin-2-yl)-4H-1,2,4-triazol-3-yl)-1-(5-methylpyrimidin-2-yl)propane-2-sulfonamide or (1S,2S)-1-isopropoxy-N-(4-((S)-1-(isoxazol-3-yl)ethyl)-5-(6-methoxypyridin-2-yl)-4H-1,2,4-triazol-3-yl)-1-(5-methylpyrimidin-2-yl)propane-2-sulfonamide] | 8.29 |
| COc1cccc(-c2nnc(NS(=O)(=O)[C@@H](C)[C@@H](OC(C)C)c3ncc(C)cn3)n2[C@@H](C)[C@H]2CCCO2)n1 (single isomer, unassigned) [Example 273.0] | 7.64 |
| COc1cccc(-c2nnc(NS(=O)(=O)[C@@H](C)[C@@H](OC(C)C)c3ncc(C)cn3)n2[C@@H](C)[C@H]2CCCO2)n1 (single isomer, unassigned) [Example 274.0] | 8.66 |
| COc1cccc(-c2nnc(NS(=O)(=O)[C@@H](C)[C@@H](OC(C)C)c3ncc(C)cn3)n2[C@@H](C)[C@H]2CCCO2)n1 (single isomer, unassigned) [Example 275.0] | 7.74 |
| COc1cccc(-c2nnc(NS(=O)(=O)[C@@H](C)[C@@H](OC(C)C)c3ncc(C)cn3)n2[C@@H](C)[C@H]2CCCO2)n1 (single isomer, unassigned) [Example 276.0] | 8.89 |
| COc1cccc(-c2nnc(NS(=O)(=O)[C@@H](C)[C@H](OC)c3ncc(Cl)cn3)n2C[C@H]2CCCO2)n1 (single isomer, unassigned) [Example 279.0, (1R,2S)-1-(5-chloropyrimidin-2-yl)-1-methoxy-N-(5-(6-methoxypyridin-2-yl)-4-(((R)-tetrahydrofuran-2-yl)methyl)-4H-1,2,4-triazol-3-yl)propane-2-sulfonamide or (1R,2S)-1-(5-chloropyrimidin-2-yl)-1-methoxy-N-(5-(6-methoxypyridin-2-yl)-4-(((S)-tetrahydrofuran-2-yl)methyl)-4H-1,2,4-triazol-3-yl)propane-2-sulfonamide] | 7.12 |
| COc1cccc(-c2nnc(NS(=O)(=O)[C@@H](C)[C@H](OC)c3ncc(Cl)cn3)n2C[C@H]2CCCO2)n1 (single isomer, unassigned) [Example 280.0, (1R,2S)-1-(5-chloropyrimidin-2-yl)-1-methoxy-N-(5-(6-methoxypyridin-2-yl)-4-(((R)-tetrahydrofuran-2-yl)methyl)-4H-1,2,4-triazol-3-yl)propane-2-sulfonamide or (1R,2S)-1-(5-chloropyrimidin-2-yl)-1-methoxy-N-(5-(6-methoxypyridin-2-yl)-4-(((S)-tetrahydrofuran-2-yl)methyl)-4H-1,2,4-triazol-3-yl)propane-2-sulfonamide] | 7.68 |

Reference: patent publication US10689367B2, “Triazole pyridyl compounds as agonists of the APJ receptor” (AMGEN INC., priority 2016, dated 2020)
